From ChEMBL document CHEMBL4184215, “Lysosomes-targeting imaging and anticancer properties of novel bis-naphthalimide derivatives” (Bioorg Med Chem Lett, 2018)
The source made the active and inactive calls. The calls are words filed in the database; no cut-off is given here.

tested on: MCF7; test: Cytotoxicity against human MCF7 cells assessed as reduction in cell viability incubated for 48 hrs by MTT assay; assay type: functional, cell-based; details: MCF7, 48 h

Q: For `Cl.Cl.Cl.Cl.O=C1c2cccc3c(N4CCC(O)CC4)ccc(c23)C(=O)N1CCCNCCNCCCN1C(=O)c2cccc3c(N4CCC(O)CC4)ccc(c23)C1=O`, which IC50 is on record?
A: 37.1 µM

Q: Which IC50 does the source give for `O=C1c2cccc3c(N4CC[C@H](O)C4)ccc(c23)C(=O)N1CCCNCCNCCCN1C(=O)c2cccc3c(N4CC[C@H](O)C4)ccc(c23)C1=O` here?
A: 142 µM

Q: Which IC50 does the source give for `O=C1c2cccc3c(N4CCC[C@H]4CO)ccc(c23)C(=O)N1CCCNCCNCCCN1C(=O)c2cccc3c(N4CCC[C@H]4CO)ccc(c23)C1=O` here?
A: 147 µM

Q: With `O=C1c2cccc3c(N4CCC(CO)CC4)ccc(c23)C(=O)N1CCCNCCNCCCN1C(=O)c2cccc3c(N4CCC(CO)CC4)ccc(c23)C1=O` as the molecule, how does the IC50 read?
A: 22.7 µM

Q: Which IC50 does the source give for `O=C1c2cccc3c(N4CCC(CCO)CC4)ccc(c23)C(=O)N1CCCNCCNCCCN1C(=O)c2cccc3c(N4CCC(CCO)CC4)ccc(c23)C1=O` here?
A: 11.1 µM

tested on: HeLa; test: Cell cycle arrest in human HeLa cells assessed as accumulation at S phase at 2.5 uM incubated for 12 hrs by propidium iodide staining based flow cytometry (reference value: 27.8%); assay type: functional; details: not given

Q: With `Cl.Cl.Cl.Cl.O=C1c2cccc3c(N4CCC(O)CC4)ccc(c23)C(=O)N1CCCNCCNCCCN1C(=O)c2cccc3c(N4CCC(O)CC4)ccc(c23)C1=O` as the molecule, how does the Activity read?
A: 40.8%

tested on: HeLa; test: Cell cycle arrest in human HeLa cells assessed as accumulation at G2 phase at 5 uM incubated for 12 hrs by propidium iodide staining based flow cytometry (reference value: 7%); assay type: functional; details: not given

Q: With `Cl.Cl.Cl.Cl.O=C1c2cccc3c(N4CCC(O)CC4)ccc(c23)C(=O)N1CCCNCCNCCCN1C(=O)c2cccc3c(N4CCC(O)CC4)ccc(c23)C1=O` as the molecule, how does the Activity read?
A: 9.9%

tested on: Calf thymus DNA; test: Binding affinity to calf thymus DNA assessed as increase in intensity of positive band at 275 nm at 8 uM to 40 uM by CD spectroscopy; assay type: nucleic-acid assay; details: Bos taurus

Q: Which Activity does the source give for `Cl.Cl.Cl.Cl.O=C1c2cccc3c(N4CCC(O)CC4)ccc(c23)C(=O)N1CCCNCCNCCCN1C(=O)c2cccc3c(N4CCC(O)CC4)ccc(c23)C1=O` here?
A: Active

tested on: Calf thymus DNA; test: Binding affinity to calf thymus DNA assessed as induction of maximum emission band shift at 1 x 10^-5 M by fluorescence spectroscopy; assay type: nucleic-acid assay; details: Bos taurus

Q: For `Cl.Cl.Cl.Cl.O=C1c2cccc3c(N4CCC(O)CC4)ccc(c23)C(=O)N1CCCNCCNCCCN1C(=O)c2cccc3c(N4CCC(O)CC4)ccc(c23)C1=O`, which Activity is on record?
A: inactive

tested on: HeLa; test: Cytotoxicity against human HeLa cells assessed as reduction in cell viability incubated for 48 hrs by MTT assay; assay type: functional, cell-based; details: not given

Q: For `Cl.Cl.Cl.Cl.O=C1c2cccc3c(N4CCC(O)CC4)ccc(c23)C(=O)N1CCCNCCNCCCN1C(=O)c2cccc3c(N4CCC(O)CC4)ccc(c23)C1=O`, which IC50 is on record?
A: 2.89 µM

Q: With `O=C1c2cccc3c(N4CC[C@H](O)C4)ccc(c23)C(=O)N1CCCNCCNCCCN1C(=O)c2cccc3c(N4CC[C@H](O)C4)ccc(c23)C1=O` as the molecule, how does the IC50 read?
A: 35.4 µM

Q: With `O=C1c2cccc3c(N4CCC[C@H]4CO)ccc(c23)C(=O)N1CCCNCCNCCCN1C(=O)c2cccc3c(N4CCC[C@H]4CO)ccc(c23)C1=O` as the molecule, how does the IC50 read?
A: 85.2 µM

Q: Which IC50 does the source give for `O=C1c2cccc3c(N4CCC(CO)CC4)ccc(c23)C(=O)N1CCCNCCNCCCN1C(=O)c2cccc3c(N4CCC(CO)CC4)ccc(c23)C1=O` here?
A: 4.03 µM

Q: With `O=C1c2cccc3c(N4CCC(CCO)CC4)ccc(c23)C(=O)N1CCCNCCNCCCN1C(=O)c2cccc3c(N4CCC(CCO)CC4)ccc(c23)C1=O` as the molecule, how does the IC50 read?
A: 6.88 µM

tested on: Calf thymus DNA; test: Binding affinity to calf thymus DNA assessed as increase in compound fluorescence intensity at 1 x 10^-5 M by fluorescence spectroscopy; assay type: nucleic-acid assay; details: Bos taurus

Q: For `Cl.Cl.Cl.Cl.O=C1c2cccc3c(N4CCC(O)CC4)ccc(c23)C(=O)N1CCCNCCNCCCN1C(=O)c2cccc3c(N4CCC(O)CC4)ccc(c23)C1=O`, which Activity is on record?
A: Active

tested on: Calf thymus DNA; test: Binding affinity to calf thymus DNA assessed as induction of bathochromic shift of maximum absorption peaks at 1 x 10^-5 M by UV-Visible spectroscopy (reference value: 426 nanometer); assay type: nucleic-acid assay; details: Bos taurus

Q: Which Activity does the source give for `Cl.Cl.Cl.Cl.O=C1c2cccc3c(N4CCC(O)CC4)ccc(c23)C(=O)N1CCCNCCNCCCN1C(=O)c2cccc3c(N4CCC(O)CC4)ccc(c23)C1=O` here?
A: 445 nm

tested on: HeLa; test: Cell cycle arrest in human HeLa cells assessed as accumulation at G2 phase at 2.5 uM incubated for 12 hrs by propidium iodide staining based flow cytometry (reference value: 7%); assay type: functional; details: not given

Q: For `Cl.Cl.Cl.Cl.O=C1c2cccc3c(N4CCC(O)CC4)ccc(c23)C(=O)N1CCCNCCNCCCN1C(=O)c2cccc3c(N4CCC(O)CC4)ccc(c23)C1=O`, which Activity is on record?
A: 11.7%

tested on: MGC-803; test: Cytotoxicity against human MGC803 cells assessed as reduction in cell viability incubated for 48 hrs by MTT assay; assay type: functional, cell-based; details: MGC-803, 48 h

Q: With `Cl.Cl.Cl.Cl.O=C1c2cccc3c(N4CCC(O)CC4)ccc(c23)C(=O)N1CCCNCCNCCCN1C(=O)c2cccc3c(N4CCC(O)CC4)ccc(c23)C1=O` as the molecule, how does the IC50 read?
A: 0.6 µM

Q: With `O=C1c2cccc3c(N4CC[C@H](O)C4)ccc(c23)C(=O)N1CCCNCCNCCCN1C(=O)c2cccc3c(N4CC[C@H](O)C4)ccc(c23)C1=O` as the molecule, how does the IC50 read?
A: 5.96 µM

Q: Which IC50 does the source give for `O=C1c2cccc3c(N4CCC[C@H]4CO)ccc(c23)C(=O)N1CCCNCCNCCCN1C(=O)c2cccc3c(N4CCC[C@H]4CO)ccc(c23)C1=O` here?
A: 35.1 µM

Q: With `O=C1c2cccc3c(N4CCC(CO)CC4)ccc(c23)C(=O)N1CCCNCCNCCCN1C(=O)c2cccc3c(N4CCC(CO)CC4)ccc(c23)C1=O` as the molecule, how does the IC50 read?
A: 2.03 µM

Q: For `O=C1c2cccc3c(N4CCC(CCO)CC4)ccc(c23)C(=O)N1CCCNCCNCCCN1C(=O)c2cccc3c(N4CCC(CCO)CC4)ccc(c23)C1=O`, which IC50 is on record?
A: 90.4 µM

tested on: A549; test: Cytotoxicity against human A549 cells assessed as reduction in cell viability incubated for 48 hrs by MTT assay; assay type: functional, cell-based; details: A549, 48 h

Q: Which IC50 does the source give for `Cl.Cl.Cl.Cl.O=C1c2cccc3c(N4CCC(O)CC4)ccc(c23)C(=O)N1CCCNCCNCCCN1C(=O)c2cccc3c(N4CCC(O)CC4)ccc(c23)C1=O` here?
A: 46.2 µM

Q: With `O=C1c2cccc3c(N4CC[C@H](O)C4)ccc(c23)C(=O)N1CCCNCCNCCCN1C(=O)c2cccc3c(N4CC[C@H](O)C4)ccc(c23)C1=O` as the molecule, how does the IC50 read?
A: 83.6 µM

Q: Which IC50 does the source give for `O=C1c2cccc3c(N4CCC[C@H]4CO)ccc(c23)C(=O)N1CCCNCCNCCCN1C(=O)c2cccc3c(N4CCC[C@H]4CO)ccc(c23)C1=O` here?
A: 472 µM

Q: Which IC50 does the source give for `O=C1c2cccc3c(N4CCC(CO)CC4)ccc(c23)C(=O)N1CCCNCCNCCCN1C(=O)c2cccc3c(N4CCC(CO)CC4)ccc(c23)C1=O` here?
A: 14 µM

Q: For `O=C1c2cccc3c(N4CCC(CCO)CC4)ccc(c23)C(=O)N1CCCNCCNCCCN1C(=O)c2cccc3c(N4CCC(CCO)CC4)ccc(c23)C1=O`, which IC50 is on record?
A: 43.5 µM

tested on: Calf thymus DNA; test: Binding affinity to calf thymus DNA assessed as induction of ICD signal changes at 8 uM to 40 uM by CD spectroscopy; assay type: nucleic-acid assay; details: Bos taurus

Q: With `Cl.Cl.Cl.Cl.O=C1c2cccc3c(N4CCC(O)CC4)ccc(c23)C(=O)N1CCCNCCNCCCN1C(=O)c2cccc3c(N4CCC(O)CC4)ccc(c23)C1=O` as the molecule, how does the Activity read?
A: Active

tested on: HeLa; test: Cell cycle arrest in human HeLa cells assessed as accumulation at S phase at 5 uM incubated for 12 hrs by propidium iodide staining based flow cytometry (reference value: 27.8%); assay type: functional; details: not given

Q: With `Cl.Cl.Cl.Cl.O=C1c2cccc3c(N4CCC(O)CC4)ccc(c23)C(=O)N1CCCNCCNCCCN1C(=O)c2cccc3c(N4CCC(O)CC4)ccc(c23)C1=O` as the molecule, how does the Activity read?
A: 45.2%

tested on: not listed separately; test: Drug accumulation in lysosome of human HeLa cells at 5 uM incubated for 1 hr by lysososmal tracker DND-99 based confocal microscopy; assay type: ADME, subcellular; details: not given

Q: Which Drug uptake does the source give for `Cl.Cl.Cl.Cl.O=C1c2cccc3c(N4CCC(O)CC4)ccc(c23)C(=O)N1CCCNCCNCCCN1C(=O)c2cccc3c(N4CCC(O)CC4)ccc(c23)C1=O` here?
A: Active

tested on: HeLa; test: Cell cycle arrest in human HeLa cells assessed as accumulation at G2 phase at 7.5 uM incubated for 12 hrs by propidium iodide staining based flow cytometry (reference value: 7%); assay type: functional; details: not given

Q: Which Activity does the source give for `Cl.Cl.Cl.Cl.O=C1c2cccc3c(N4CCC(O)CC4)ccc(c23)C(=O)N1CCCNCCNCCCN1C(=O)c2cccc3c(N4CCC(O)CC4)ccc(c23)C1=O` here?
A: 5.3%

tested on: Calf thymus DNA; test: Binding affinity to calf thymus DNA assessed as change in melting temperature at 5 uM; assay type: nucleic-acid assay; details: Bos taurus

Q: Which ΔTm does the source give for `Cl.Cl.Cl.Cl.O=C1c2cccc3c(N4CCC(O)CC4)ccc(c23)C(=O)N1CCCNCCNCCCN1C(=O)c2cccc3c(N4CCC(O)CC4)ccc(c23)C1=O` here?
A: 8.2 °C

tested on: Calf thymus DNA; test: Binding affinity to calf thymus DNA assessed as reduction in compound self absorption intensity at 1 x 10^-5 M by UV-Visible spectroscopy; assay type: nucleic-acid assay; details: Bos taurus

Q: For `Cl.Cl.Cl.Cl.O=C1c2cccc3c(N4CCC(O)CC4)ccc(c23)C(=O)N1CCCNCCNCCCN1C(=O)c2cccc3c(N4CCC(O)CC4)ccc(c23)C1=O`, which Activity is on record?
A: Active

tested on: HeLa; test: Cell cycle arrest in human HeLa cells assessed as accumulation at G1 phase at 2.5 uM incubated for 12 hrs by propidium iodide staining based flow cytometry (reference value: 65.2%); assay type: functional; details: not given

Q: With `Cl.Cl.Cl.Cl.O=C1c2cccc3c(N4CCC(O)CC4)ccc(c23)C(=O)N1CCCNCCNCCCN1C(=O)c2cccc3c(N4CCC(O)CC4)ccc(c23)C1=O` as the molecule, how does the Activity read?
A: 47.5%

tested on: HeLa; test: Cell cycle arrest in human HeLa cells assessed as accumulation at G1 phase at 7.5 uM incubated for 12 hrs by propidium iodide staining based flow cytometry (reference value: 65.2%); assay type: functional; details: not given

Q: For `Cl.Cl.Cl.Cl.O=C1c2cccc3c(N4CCC(O)CC4)ccc(c23)C(=O)N1CCCNCCNCCCN1C(=O)c2cccc3c(N4CCC(O)CC4)ccc(c23)C1=O`, which Activity is on record?
A: 44.3%

tested on: HeLa; test: Cell cycle arrest in human HeLa cells assessed as accumulation at G1 phase at 5 uM incubated for 12 hrs by propidium iodide staining based flow cytometry (reference value: 65.2%); assay type: functional; details: not given

Q: With `Cl.Cl.Cl.Cl.O=C1c2cccc3c(N4CCC(O)CC4)ccc(c23)C(=O)N1CCCNCCNCCCN1C(=O)c2cccc3c(N4CCC(O)CC4)ccc(c23)C1=O` as the molecule, how does the Activity read?
A: 44.9%

tested on: HeLa; test: Cell cycle arrest in human HeLa cells assessed as accumulation at S phase at 7.5 uM incubated for 12 hrs by propidium iodide staining based flow cytometry (reference value: 27.8%); assay type: functional; details: not given

Q: Which Activity does the source give for `Cl.Cl.Cl.Cl.O=C1c2cccc3c(N4CCC(O)CC4)ccc(c23)C(=O)N1CCCNCCNCCCN1C(=O)c2cccc3c(N4CCC(O)CC4)ccc(c23)C1=O` here?
A: 50.4%

tested on: Calf thymus DNA; test: Binding affinity to calf thymus DNA at 1 x 10^-5 M by UV-Visible spectroscopy; assay type: nucleic-acid assay; details: Bos taurus

Q: For `Cl.Cl.Cl.Cl.O=C1c2cccc3c(N4CCC(O)CC4)ccc(c23)C(=O)N1CCCNCCNCCCN1C(=O)c2cccc3c(N4CCC(O)CC4)ccc(c23)C1=O`, which K is on record?
A: 1.8 ×10⁵ /M
